The nature of this series: xn = mol fraction of the nth substance listed. As to conditions: 298.15 K, 101 kPa.

The speed of sound is how fast a sound wave travels through the sample.

The compound `CC(C)=O` + CC(=O)[O-].CCCC[n+]1ccn(C)c1 came in with a speed of sound (x1 = 1) of 1163 m/s.
Turning to `O` + CC(=O)[O-].CC[n+]1ccn(C)c1, the speed of sound (x1 = 1) came to 1495 m/s.
Consider `CC(=O)[O-].CCCC[n+]1ccn(C)c1` + CC(C)=O, for which the speed of sound is on record as 1650 m/s (x2 = 0); 1600 m/s (x2 = 0.2024); 1566 m/s (x2 = 0.3155); 1497 m/s (x2 = 0.49); 1445 m/s (x2 = 0.5915); 1384 m/s (x2 = 0.689). Besides, the speed of sound (x2 = 0.8036) came to 1301 m/s and the speed of sound (x2 = 0.8357) stood at 1276 m/s.
On to `CC[n+]1ccn(C)c1.N#C[S-]` + CC(C)=O, for which the speed of sound (x2 = 0) was found to be 1851 m/s; the speed of sound (x2 = 0.1125) worked out at 1824 m/s; the speed of sound (x2 = 0.1889) was 1798 m/s; the speed of sound (x2 = 0.3058) came out at 1758 m/s; the speed of sound (x2 = 0.3917) was determined as 1720 m/s; the speed of sound (x2 = 0.5127) is on record as 1652 m/s. The speed of sound reads like this: (x2 = 0.6) 1590 m/s; (x2 = 0.6892) 1513 m/s; (x2 = 0.7842) 1417 m/s; (x2 = 0.9008) 1286 m/s.
Take `CC(C)=O` + CC[n+]1ccn(C)c1.N#C[S-]: where the note is “x1 = 1”, the speed of sound was found to be 1166 m/s.
Regarding `CC(=O)[O-].CC[n+]1ccn(C)c1` + O, the speed of sound (x2 = 0) was 1735 m/s; the speed of sound (x2 = 0.1306) is 1754 m/s; the speed of sound (x2 = 0.2326) worked out at 1763 m/s; the speed of sound (x2 = 0.2865) turned out to be 1781 m/s; the speed of sound (x2 = 0.3671) amounted to 1795 m/s; the speed of sound (x2 = 0.4047) was found to be 1803 m/s. Moreover, the speed of sound reads like this: (x2 = 0.4896) 1811 m/s; (x2 = 0.5258) 1838 m/s; (x2 = 0.5507) 1841 m/s; (x2 = 0.7151) 1910 m/s; (x2 = 0.7317) 1922 m/s; (x2 = 0.8099) 1952 m/s. The speed of sound (x2 = 0.9053) was found to be 1915 m/s.

For the origin of these results see a compilation of properties of binary mixtures (doi:10.1016/j.molliq.2021.118292).
